# Test results published in patent publication US10800792B2, “Inhibitors of Bruton's tyrosine kinase and method of their use” (JANSSEN PHARMACEUTICA NV, priority 2015, dated 2020).
# Molecular target: unphosphorylated-BTK kinase domain (UP-BTK), GST-tagged human BTK (389-659aa) (Homo sapiens (Human), UniProt Q06187)
# Assay: BTK kinase Lanthascreen binding assay
# Conditions: pIC50 = negative log of the IC50 in molar, 60 minutes incubation, 50 nM Tracer 236
# Outline: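 A fluorescent tracer is bound to unphosphorylated BTK; test compound is added to compete it off; the Lanthascreen signal is read and IC50 is fitted, then reported as its negative log in molar.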
# Chain of unphosphorylated-BTK kinase domain (UP-BTK), GST-tagged human BTK (389-659aa) (Q06187 389-659): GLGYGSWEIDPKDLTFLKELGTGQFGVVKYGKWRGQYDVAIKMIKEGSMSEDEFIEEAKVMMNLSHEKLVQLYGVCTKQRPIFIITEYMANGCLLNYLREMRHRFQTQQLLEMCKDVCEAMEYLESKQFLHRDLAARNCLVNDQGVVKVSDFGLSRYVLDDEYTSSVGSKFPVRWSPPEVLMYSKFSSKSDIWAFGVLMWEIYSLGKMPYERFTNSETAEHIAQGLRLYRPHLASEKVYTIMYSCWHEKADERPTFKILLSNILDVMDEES
Structure (SMILES),BTK_I_binding pIC50,IC50 (read-out: BTK_I_binding pIC50 (converted))
"Cc1cc(Oc2ccccc2C(C)C)ccc1N1C(=O)Nc2c(C(=O)N[C@@H]3CCCN(C)C3)sc3nccc1c23 [Example 223, (R)-5-(4-(2-Isopropylphenoxy)-2-methylphenyl)-N-(1-methylpiperidin-3-yl)-4-oxo-4,5-dihydro-3H-1-thia-3,5,8-triazaacenaphthylene-2-carboxamide]",6.6,–
"CO[C@H]1CNC[C@H](NC(=O)c2sc3nccc4c3c2NC(=O)N4c2ccc(Oc3ccccc3)cc2C)C1 [Example 224, N-((3R,5R)-5-Methoxypiperidin-3-yl)-5-(2-methyl-4-phenoxyphenyl)-4-oxo-4,5-dihydro-3H-1-thia-3,5,8-triazaacenaphthylene-2-carboxamide]",6.8,–
"CC(C)=CC(=O)N1CCC[C@@H](NC(=O)c2sc3nccc4c3c2NC(=O)N4c2ccc(Oc3ccccc3)cc2C)C1 [Example 225, (R)-5-(2-Methyl-4-phenoxyphenyl)-N-(1-(3-methylbut-2-enoyl)piperidin-3-yl)-4-oxo-4,5-dihydro-3H-1-thia-3,5,8-triazaacenaphthylene-2-carboxamide]",6.7,–
"COCc1cccc(Oc2ccc(N3C(=O)Nc4c(C(=O)N[C@@H]5CCCN(C)C5)sc5nccc3c45)c(C)c2)c1 [Example 226, (R)-5-(4-(3-(Methoxymethyl)phenoxy)-2-methylphenyl)-N-(1-methylpiperidin-3-yl)-4-oxo-4,5-dihydro-3H-1-thia-3,5,8-triazaacenaphthylene-2-carboxamide]",6.5,–
"Cc1cc(Oc2ccccc2OC(F)(F)F)ccc1N1C(=O)Nc2c(C(=O)N[C@@H]3CCCN(C)C3)sc3nccc1c23 [Example 227, (R)-5-(2-Methyl-4-(2-(trifluoromethoxy)phenoxy)phenyl)-N-(1-methylpiperidin-3-yl)-4-oxo-4,5-dihydro-3H-1-thia-3,5,8-triazaacenaphthylene-2-carboxamide]",6.5,–
"Cc1cc(Oc2ccccc2)ccc1N1C(=O)Nc2c(C(=O)N[C@@H]3CCCN(C(=O)/C(F)=C/C4CC4)C3)sc3nccc1c23 [Example 228, (R,Z)—N-(1-(3-Cyclopropyl-2-fluoroacryloyl)piperidin-3-yl)-5-(2-methyl-4-phenoxyphenyl)-4-oxo-4,5-dihydro-3H-1-thia-3,5,8-triazaacenaphthylene-2-carboxamide]",6.6,–
"Cc1cc(Oc2ccccc2)ccc1N1C(=O)Nc2c(C(=O)NC3CN(C(=O)/C(C#N)=C/C4CC4)C3)sc3nccc1c23 [Example 229, (E)-N-(1-(2-Cyano-3-cyclopropylacryloyl)azetidin-3-yl)-5-(2-methyl-4-phenoxyphenyl)-4-oxo-4,5-dihydro-3H-1-thia-3,5,8-triazaacenaphthylene-2-carboxamide]",6.7,–
"Cc1cc(Oc2ccccc2)ccc1N1C(=O)Nc2c(C(=O)NC3CN(C4CC4)C3)sc3nccc1c23 [Example 230, N-(1-Cyclopropylazetidin-3-yl)-5-(2-methyl-4-phenoxyphenyl)-4-oxo-4,5-dihydro-3H-1-thia-3,5,8-triazaacenaphthylene-2-carboxamide]",6.4,–
"Cc1cc(OC2CCOCC2)ccc1N1C(=O)Nc2c(C(=O)N[C@@H]3CCCN(C(=O)/C(C#N)=C/C4CC4)C3)sc3nccc1c23 [Example 233, (R,E)-N-(1-(2-Cyano-3-cyclopropylacryloyl)piperidin-3-yl)-5-(2-methyl-4-((tetrahydro-2H-pyran-4-yl)oxy)phenyl)-4-oxo-4,5-dihydro-3H-1-thia-3,5,8-triazaacenaphthylene-2-carboxamide]",7.2,–
"O=C(N[C@@H]1CCCNC1)c1sc2nccc3c2c1NC(=O)N3c1c(F)cc(Oc2ccccc2)cc1F [Example 235, (R)-5-(2,6-difluoro-4-phenoxyphenyl)-4-oxo-N-(piperidin-3-yl)-4,5-dihydro-3H-1-thia-3,5,8-triazaacenaphthylene-2-carboxamide]",7.0,–
"Cc1cc(Oc2ccccc2)ccc1N1C(=O)Nc2c(C(=O)N[C@H]3CNC[C@@H]3O)sc3nccc1c23 [Example 236, N-((3S,4S)-4-Hydroxypyrrolidin-3-yl)-5-(2-methyl-4-phenoxyphenyl)-4-oxo-4,5-dihydro-3H-1-thia-3,5,8-triazaacenaphthylene-2-carboxamide]",7.0,–
"Cc1cc(Oc2ccccc2)ccc1N1C(=O)Nc2c(C(=O)NC3CCCN(C(=O)/C=C/CNC(=O)CCCC(=O)NCCCOCCOCCOCCCNC(=O)CCCC[C@H]4SC[C@@H]5NC(=O)N[C@@H]54)C3)sc3nccc1c23 (stereo partly drawn) [Example 237, N^1-((E)-4-(3-(5-(2-methyl-4-phenoxyphenyl)-4-oxo-4,5-dihydro-3H-1-thia-3,5,8-triazaacenaphthylene-2-carboxamido)piperidin-1-yl)-4-oxobut-2-en-1-yl)-N5-(15-oxo-19-((3aS,4R,6aR)-2-oxohexahydro-1H-thieno[34-d]imidazol-4-yl)-4,7,10-trioxa-14-azanonadecyl)glutaramide]",6.9,–
"CNC(C)(C)/C=C(\C#N)C(=O)N1CCC[C@@H](NC(=O)c2sc3nccc4c3c2NC(=O)N4c2ccc(Oc3ccccc3)cc2C)C1 [Example 238, (R,E)-N-(1-(2-Cyano-4-methyl-4-(methylamino)pent-2-enoyl)piperidin-3-yl)-5-(2-methyl-4-phenoxyphenyl)-4-oxo-4,5-dihydro-3H-1-thia-3,5,8-triazaacenaphthylene-2-carboxamide]",6.8,–
Cc1cc(Oc2ccccc2)ccc1N1C(=O)Nc2c(C(=O)NC3CN(C(=O)CCS(C)(=O)=O)C3)sc3nccc1c23 [Example 240],–,200 nM
"Cc1cc(Oc2ccccc2)ccc1N1C(=O)Nc2c(C(=O)N[C@H]3CNC[C@H]3O)sc3nccc1c23 [Example 241, N-((3S,4R)-4-hydroxypyrrolidin-3-yl)-5-(2-methyl-4-phenoxyphenyl)-4-oxo-4,5-dihydro-3H-1-thia-3,5,8-triazaacenaphthylene-2-carboxamide]",6.7,–
"Cc1cc(Oc2ccccc2C(F)(F)F)ccc1N1C(=O)Nc2c(C(=O)N[C@@H]3CCCN(C)C3)sc3nccc1c23 [Example 242, (R)-5-(2-Methyl-4-(2-(trifluoromethyl)phenoxy)phenyl)-N-(1-methylpiperidin-3-yl)-4-oxo-4,5-dihydro-3H-1-thia-3,5,8-triazaacenaphthylene-2-carboxamide]",6.7,–
"Cc1cc(Oc2ccccc2)ccc1N1C(=O)Nc2c(C(=O)N[C@H]3CN(C)C[C@@H]3O)sc3nccc1c23 [Example 243, N-((3S,4S)-4-Hydroxy-1-methylpyrrolidin-3-yl)-5-(2-methyl-4-phenoxyphenyl)-4-oxo-4,5-dihydro-3H-1-thia-3,5,8-triazaacenaphthylene-2-carboxamide]",6.6,–
"CO[C@H]1CN(C)C[C@@H]1NC(=O)c1sc2nccc3c2c1NC(=O)N3c1ccc(Oc2ccccc2)cc1C [Example 244, N-((3S,4S)-4-Methoxy-1-methylpyrrolidin-3-yl)-5-(2-methyl-4-phenoxyphenyl)-4-oxo-4,5-dihydro-3H-1-thia-3,5,8-triazaacenaphthylene-2-carboxamide]",6.6,–
